Data from the CheMixHub ionic liquid set.
± gives the uncertainty stated by the source.

Experiment: xn = mol fraction of the nth substance listed

CC[n+]1ccccc1.O=S(=O)([N-]S(=O)(=O)C(F)(F)F)C(F)(F)F + O
viscosity [mPa·s], 101 kPa
Conditions | 298.15 K | 323.15 K | 343.15 K | 353.15 K
x2 = 0.005125 | – | 17.8 ± 1.1 | – | 8.68 ± 0.53
x2 = 0.08693 | 34.1 ± 2.1 | 15.47 ± 0.94 | 9.7 ± 0.59 | –

CCO + O + CCCCCCCCCCCCOS(=O)(=O)[O-].[Na+]
298 K, 100 kPa, frequency 0.001 MHz
Conditions | electrical conductivity [S/m]
x1 = 0.01596, x3 = 0 | 0.00025
x1 = 0.02563, x2 = 0.9744 | 0.00026
x1 = 0.04623, x2 = 0.9538 | 0.00029
x1 = 0.06864, x2 = 0.9314 | 0.00031 ± 0.00057
x1 = 0.1203, x2 = 0.8797 | 0.00025
x1 = 0.1463, x2 = 0.8537 | 0.00025

CCC[N+]1(C)CCCCC1.[Br-] + O + CCCC[N+]1(C)CCCCC1.[Br-]
101 kPa
Conditions | viscosity [mPa·s]
298.15 K, x1 = 0.00449, x3 = 0.004485 | 1.305 ± 0.016
298.15 K, x2 = 0.9578, x1 = 0.01421 | 2.565 ± 0.032
303.15 K, x1 = 0.00449, x3 = 0.004485 | 1.135 ± 0.014
303.15 K, x2 = 0.9577, x1 = 0.02117 | 2.165 ± 0.027
303.15 K, x2 = 0.9734, x1 = 0.00893 | 1.615 ± 0.02
308.15 K, x2 = 0.9733, x1 = 0.01334 | 1.355 ± 0.017

CCCC[N+]1(C)CCCCC1.[Br-] + O + CC[N+]1(C)CCCCC1.[Br-]
101 kPa
Conditions | viscosity [mPa·s]
293.15 K, x2 = 0.9577, x3 = 0.02117 | 2.805 ± 0.034
293.15 K, x3 = 0.005974, x1 = 0.002995 | 1.365 ± 0.017
298.15 K, x2 = 0.9734, x3 = 0.00893 | 1.815 ± 0.023
308.15 K, x2 = 0.9578, x3 = 0.0142 | 1.845 ± 0.023

CCC[N+]1(C)CCCCC1.[Br-] + O + CC[N+]1(C)CCCCC1.[Br-]
Conditions | viscosity [mPa·s]
293.15 K, 101 kPa, x3 = 0.00299, x1 = 0.005976 | 1.575 ± 0.019

CCCC[N+](CCCC)(CCCC)Cc1ccccc1.[Cl-] + O=C(O)[C@@H]1CCCN1 + O
electrical conductivity [S/m], 101 kPa
Conditions | 298.15 K | 303.15 K | 308.15 K
x2 = 1.802e-05, x1 = 1.802e-05 | 0.0132 ± 0.0013 | 0.0149 ± 0.0015 | 0.0164 ± 0.0016
x2 = 1.804e-05, x1 = 5.406e-05 | 0.0279 ± 0.0028 | 0.0297 ± 0.003 | 0.0314 ± 0.0031
x2 = 1.805e-05, x1 = 9.009e-05 | 0.0321 ± 0.0032 | 0.0338 ± 0.0034 | 0.0353 ± 0.0035
x2 = 4.506e-05, x1 = 1.802e-05 | 0.0156 ± 0.0016 | 0.0164 ± 0.0016 | 0.0176 ± 0.0018
x2 = 4.509e-05, x1 = 5.405e-05 | 0.0298 ± 0.003 | 0.0313 ± 0.0031 | 0.0329 ± 0.0033
x2 = 4.511e-05, x1 = 9.009e-05 | 0.0339 ± 0.0034 | 0.0356 ± 0.0036 | 0.0372 ± 0.0037
x2 = 7.21e-05, x1 = 1.802e-05 | 0.0169 ± 0.0017 | 0.0183 ± 0.0018 | 0.0197 ± 0.002
x2 = 7.214e-05, x1 = 5.405e-05 | 0.0314 ± 0.0031 | 0.0327 ± 0.0033 | 0.0341 ± 0.0034
x2 = 7.218e-05, x1 = 9.009e-05 | 0.0353 ± 0.0035 | 0.0367 ± 0.0037 | 0.0387 ± 0.0039
x2 = 9.913e-05, x1 = 1.802e-05 | 0.0184 ± 0.0018 | 0.0206 ± 0.0021 | 0.0213 ± 0.0021
x2 = 9.919e-05, x1 = 5.405e-05 | 0.0329 ± 0.0033 | 0.0335 ± 0.0034 | 0.0354 ± 0.0035
x2 = 9.925e-05, x1 = 9.008e-05 | 0.0368 ± 0.0037 | 0.0383 ± 0.0038 | 0.0409 ± 0.0041
x2 = 0.0001262, x1 = 1.802e-05 | 0.0209 ± 0.0021 | 0.0219 ± 0.0022 | 0.0229 ± 0.0023
x2 = 0.0001262, x1 = 5.405e-05 | 0.0337 ± 0.0034 | 0.0349 ± 0.0035 | 0.0366 ± 0.0037
x2 = 0.0001263, x1 = 9.008e-05 | 0.0384 ± 0.0038 | 0.0398 ± 0.004 | 0.0423 ± 0.0042
x2 = 0.0001532, x1 = 1.802e-05 | 0.0223 ± 0.0022 | 0.0239 ± 0.0024 | 0.0251 ± 0.0025
x2 = 0.0001533, x1 = 5.405e-05 | 0.0345 ± 0.0035 | 0.0358 ± 0.0036 | 0.0381 ± 0.0038
x2 = 0.0001534, x1 = 9.008e-05 | 0.0395 ± 0.004 | 0.0416 ± 0.0042 | 0.0445 ± 0.0045

CCCC[N+](CCCC)(CCCC)Cc1ccccc1.[Cl-] + O=C([O-])C1=NN(c2ccc(S(=O)(=O)[O-])cc2)C(=O)C1N=Nc1ccc(S(=O)(=O)[O-])cc1.[Na+].[Na+].[Na+] + O
electrical conductivity [S/m], 101.3 kPa, frequency 0.001 MHz
Conditions | 298.15 K | 308.15 K | 318.15 K
x2 = 0, x1 = 1.802e-05 | 0.0104 ± 0.0043 | 0.0139 ± 0.0051 | 0.0173 ± 0.0061
x2 = 0, x1 = 5.406e-05 | 0.0231 ± 0.0047 | 0.0284 ± 0.0056 | 0.0345 ± 0.0071
x2 = 0, x1 = 9.009e-05 | 0.0367 ± 0.006 | 0.0457 ± 0.0069 | 0.0546 ± 0.0081

viscosity [mPa·s], 101.3 kPa
Conditions | 298.15 K | 308.15 K | 318.15 K
x2 = 0, x1 = 1.802e-05 | 0.906 ± 0.045 | 0.775 ± 0.045 | 0.643 ± 0.045
x2 = 0, x1 = 5.406e-05 | 0.923 ± 0.045 | 0.793 ± 0.045 | 0.659 ± 0.045
x2 = 0, x1 = 9.009e-05 | 0.942 ± 0.045 | – | –

CC(C)C[P+](C)(CC(C)C)CC(C)C.Cc1ccc(S(=O)(=O)[O-])cc1 + O=S1(=O)CCCC1
101.33 kPa, x1 = 0.5
Conditions | viscosity [mPa·s]
303.18 K | 216 ± 52
313.18 K | 122 ± 26
323.15 K | 69 ± 14
333.13 K | 44.4 ± 9
343.09 K | 27.4 ± 5.5
353.11 K | 18.5 ± 3.7

CCCCCC[N+]1(C)CCCC1.O=S(=O)([N-]S(=O)(=O)C(F)(F)F)C(F)(F)F + O=S1(=O)CCCC1
101.33 kPa, x1 = 0.5
Conditions | viscosity [mPa·s]
303.25 K | 30.7 ± 6.2
313.25 K | 22.1 ± 4.5
323.25 K | 16.4 ± 3.3
333.15 K | 12.2 ± 2.5
343.15 K | 9 ± 1.8
353.15 K | 7.2 ± 1.4

CCC(=O)OC + O=S(=O)([N-]S(=O)(=O)C(F)(F)F)C(F)(F)F.[Li+]
298.1 K, 100 kPa, x2 = 0.333
Conditions | electrical conductivity [S/m] | viscosity [mPa·s]
– | 0.23 ± 0.01 | 21.6 ± 0.5

O=S(=O)([N-]S(=O)(=O)C(F)(F)F)C(F)(F)F.[Rb+] + O=S(=O)([N-]S(=O)(=O)C(F)(F)F)C(F)(F)F.[Li+]
100 kPa, x2 = 0.25
Conditions | viscosity [mPa·s]
452.5 K | 47.7 ± 5
463 K | 36.9 ± 3.8
483.1 K | 22.7 ± 2.3
523.6 K | 10.2 ± 1
531.9 K | 8.55 ± 0.87

100 kPa, frequency 1 MHz, x2 = 0.25
Conditions | electrical conductivity [S/m]
512.5 K | 2.82 ± 0.28
531.5 K | 3.59 ± 0.36

CCC(=O)OC + O=S(=O)([N-]S(=O)(=O)C(F)(F)F)C(F)(F)F.[Li+] + COC(=O)OC
298.15 K, 100 kPa
Conditions | viscosity [mPa·s]
x2 = 0.333, x3 = 0 | 21.6 ± 0.5
x2 = 0.333, x3 = 0.3335 | 38.6 ± 1.1
